The values below come from patent publication US20250255882A1, “TREATMENT OF CARDIAC CONDITION RELATED COGNITIVE DYSFUNCTION” (The Trustees of Columbia University in the City of New York, priority 2024, published 2025).

In test [1] the test system is mouse model of HF (myocardial infarction, MI). The test is described as follows: open field test and elevated plus maze (EPM) test. The test is classed as in vivo. As to conditions: MI mice, treated. An excerpt:
FIGS. 2A-2G illustrate a mouse model of heart failure (myocardial infarction) that is associated with cognitive dysfunction. […] One-way analysis of variance (ANOVA) was used to compare the difference between the six groups in FIGS. 2B, 2C, 2E and 2F. Tukey's test was used for multiple comparisons; two-way ANOVA was used in FIG. 2D. […] All statistical tests were two sided with the data derived from biologically independent samples.
Because of the complexity of the clinical manifestation of HF patients, the mouse model of HF (myocardial infarction, MI) was used with reduced ejection fraction to evaluate the mechanisms of CD. The open field test and elevated plus maze (EPM) test were used to evaluate the behavioral phenotypes, and spontaneous exploratory activity in the mice. In the open field test, mice were placed at the center of a chamber and allowed to explore for 6 min. […] In the EPM test, MI mice spent […] time in the open arms of the EPM (FIG. 2B) compared to SHAM (0.22±0.04 versus 0.14±0.02; P<0.05). […] As a control, the effects of a Rycal®, ARM036, was studied.

Test [2] shares this test system. Description: novel object recognition test (hippocampal-dependent short-term memory). The test is classed as in vivo. To be noted: MI mice, treated; MI 15%±4%, SHAM 48%±5%. From the text: One-way analysis of variance (ANOVA) was used to compare the difference between the six groups in FIGS. 2B, 2C, 2E and 2F. Tukey's test was used for multiple comparisons; two-way ANOVA was used in FIG. 2D. […] All statistical tests were two sided with the data derived from biologically independent samples.
Next, a novel object recognition test was used to evaluate hippocampal-dependent short-term memory. (see Liu, X. et al. Role of leaky neuronal ryanodine receptors in stress-induced cognitive dysfunction. Cell 150, 1055-1067 (2012); and Bevins, R. A. & Besheer, J. Object recognition in rats and mice: a one-trial non-matching-to-sample learning task to study ‘recognition memory’. Nat. Protoc. 1, 1306-1311 (2006)).

In the next test the test system is MI mice. The test is described as follows: long-term potentiation (fEPSPs) in hippocampal slices. The test is classed as in vivo, mouse. As to conditions: slices from treated MI mice; MI decreased LTP versus SHAM. How it is done:
FIG. 4A is a schematic representation of a hippocampal brain slice for LTP experiments and the positioning of the stimulating and recording electrodes.
Field excitatory postsynaptic potentials (fEPSPs) were evaluated at the Schaffer collateral using a bipolar electrode placed at the CA3 and recording at the CA1 (FIG. 4A). […] Importantly, MI and treatment with the various compounds after MI had no effect on basal synaptic transmission determined by the input-output curves (I-O; P=0.5; FIG. 4D).

Test [3] concerns germinal matrix hemorrhage. To be noted: cited from earlier work.
Test [4] relates to HIV-1-associated neurocognitive disorders. As to conditions: rat model; cited from earlier work.
Test [5] deals with T1, RyR2 (Mus musculus, UniProt E9Q401). Description: ER Ca2+ leak measured in microsomes from mouse hippocampi. The test is classed as in vivo. As to conditions: hippocampal microsomes from treated MI mice, versus untreated MI. Further details: Hippocampal RyR2 was immunoprecipitated and immunoblotted to detect PTMs; from tissue; host or cells: mouse hippocampus (SHAM / MI mice, treated in vivo). Here is the method:
FIG. 3E are graphs of RyR2 Po, To and Tc in the same groups as FIG. 3D. FIG. 3F is a graph of Ca^2+ leak measured in microsomes from mouse hippocampi of the same groups as FIG. 3D. […] Individual values are shown with the mean±s.e.m. […] Data are derived from biologically independent samples. All statistical tests were two sided.
PTMs and functional abnormalities of neuronal RyR2 in HF hippocampal samples from MI mice were then evaluated and compared them to SHAM. Hippocampal RyR2 was immunoprecipitated and immunoblotted to detect PTMs.
Target sequence in this assay (E9Q401 whole entry): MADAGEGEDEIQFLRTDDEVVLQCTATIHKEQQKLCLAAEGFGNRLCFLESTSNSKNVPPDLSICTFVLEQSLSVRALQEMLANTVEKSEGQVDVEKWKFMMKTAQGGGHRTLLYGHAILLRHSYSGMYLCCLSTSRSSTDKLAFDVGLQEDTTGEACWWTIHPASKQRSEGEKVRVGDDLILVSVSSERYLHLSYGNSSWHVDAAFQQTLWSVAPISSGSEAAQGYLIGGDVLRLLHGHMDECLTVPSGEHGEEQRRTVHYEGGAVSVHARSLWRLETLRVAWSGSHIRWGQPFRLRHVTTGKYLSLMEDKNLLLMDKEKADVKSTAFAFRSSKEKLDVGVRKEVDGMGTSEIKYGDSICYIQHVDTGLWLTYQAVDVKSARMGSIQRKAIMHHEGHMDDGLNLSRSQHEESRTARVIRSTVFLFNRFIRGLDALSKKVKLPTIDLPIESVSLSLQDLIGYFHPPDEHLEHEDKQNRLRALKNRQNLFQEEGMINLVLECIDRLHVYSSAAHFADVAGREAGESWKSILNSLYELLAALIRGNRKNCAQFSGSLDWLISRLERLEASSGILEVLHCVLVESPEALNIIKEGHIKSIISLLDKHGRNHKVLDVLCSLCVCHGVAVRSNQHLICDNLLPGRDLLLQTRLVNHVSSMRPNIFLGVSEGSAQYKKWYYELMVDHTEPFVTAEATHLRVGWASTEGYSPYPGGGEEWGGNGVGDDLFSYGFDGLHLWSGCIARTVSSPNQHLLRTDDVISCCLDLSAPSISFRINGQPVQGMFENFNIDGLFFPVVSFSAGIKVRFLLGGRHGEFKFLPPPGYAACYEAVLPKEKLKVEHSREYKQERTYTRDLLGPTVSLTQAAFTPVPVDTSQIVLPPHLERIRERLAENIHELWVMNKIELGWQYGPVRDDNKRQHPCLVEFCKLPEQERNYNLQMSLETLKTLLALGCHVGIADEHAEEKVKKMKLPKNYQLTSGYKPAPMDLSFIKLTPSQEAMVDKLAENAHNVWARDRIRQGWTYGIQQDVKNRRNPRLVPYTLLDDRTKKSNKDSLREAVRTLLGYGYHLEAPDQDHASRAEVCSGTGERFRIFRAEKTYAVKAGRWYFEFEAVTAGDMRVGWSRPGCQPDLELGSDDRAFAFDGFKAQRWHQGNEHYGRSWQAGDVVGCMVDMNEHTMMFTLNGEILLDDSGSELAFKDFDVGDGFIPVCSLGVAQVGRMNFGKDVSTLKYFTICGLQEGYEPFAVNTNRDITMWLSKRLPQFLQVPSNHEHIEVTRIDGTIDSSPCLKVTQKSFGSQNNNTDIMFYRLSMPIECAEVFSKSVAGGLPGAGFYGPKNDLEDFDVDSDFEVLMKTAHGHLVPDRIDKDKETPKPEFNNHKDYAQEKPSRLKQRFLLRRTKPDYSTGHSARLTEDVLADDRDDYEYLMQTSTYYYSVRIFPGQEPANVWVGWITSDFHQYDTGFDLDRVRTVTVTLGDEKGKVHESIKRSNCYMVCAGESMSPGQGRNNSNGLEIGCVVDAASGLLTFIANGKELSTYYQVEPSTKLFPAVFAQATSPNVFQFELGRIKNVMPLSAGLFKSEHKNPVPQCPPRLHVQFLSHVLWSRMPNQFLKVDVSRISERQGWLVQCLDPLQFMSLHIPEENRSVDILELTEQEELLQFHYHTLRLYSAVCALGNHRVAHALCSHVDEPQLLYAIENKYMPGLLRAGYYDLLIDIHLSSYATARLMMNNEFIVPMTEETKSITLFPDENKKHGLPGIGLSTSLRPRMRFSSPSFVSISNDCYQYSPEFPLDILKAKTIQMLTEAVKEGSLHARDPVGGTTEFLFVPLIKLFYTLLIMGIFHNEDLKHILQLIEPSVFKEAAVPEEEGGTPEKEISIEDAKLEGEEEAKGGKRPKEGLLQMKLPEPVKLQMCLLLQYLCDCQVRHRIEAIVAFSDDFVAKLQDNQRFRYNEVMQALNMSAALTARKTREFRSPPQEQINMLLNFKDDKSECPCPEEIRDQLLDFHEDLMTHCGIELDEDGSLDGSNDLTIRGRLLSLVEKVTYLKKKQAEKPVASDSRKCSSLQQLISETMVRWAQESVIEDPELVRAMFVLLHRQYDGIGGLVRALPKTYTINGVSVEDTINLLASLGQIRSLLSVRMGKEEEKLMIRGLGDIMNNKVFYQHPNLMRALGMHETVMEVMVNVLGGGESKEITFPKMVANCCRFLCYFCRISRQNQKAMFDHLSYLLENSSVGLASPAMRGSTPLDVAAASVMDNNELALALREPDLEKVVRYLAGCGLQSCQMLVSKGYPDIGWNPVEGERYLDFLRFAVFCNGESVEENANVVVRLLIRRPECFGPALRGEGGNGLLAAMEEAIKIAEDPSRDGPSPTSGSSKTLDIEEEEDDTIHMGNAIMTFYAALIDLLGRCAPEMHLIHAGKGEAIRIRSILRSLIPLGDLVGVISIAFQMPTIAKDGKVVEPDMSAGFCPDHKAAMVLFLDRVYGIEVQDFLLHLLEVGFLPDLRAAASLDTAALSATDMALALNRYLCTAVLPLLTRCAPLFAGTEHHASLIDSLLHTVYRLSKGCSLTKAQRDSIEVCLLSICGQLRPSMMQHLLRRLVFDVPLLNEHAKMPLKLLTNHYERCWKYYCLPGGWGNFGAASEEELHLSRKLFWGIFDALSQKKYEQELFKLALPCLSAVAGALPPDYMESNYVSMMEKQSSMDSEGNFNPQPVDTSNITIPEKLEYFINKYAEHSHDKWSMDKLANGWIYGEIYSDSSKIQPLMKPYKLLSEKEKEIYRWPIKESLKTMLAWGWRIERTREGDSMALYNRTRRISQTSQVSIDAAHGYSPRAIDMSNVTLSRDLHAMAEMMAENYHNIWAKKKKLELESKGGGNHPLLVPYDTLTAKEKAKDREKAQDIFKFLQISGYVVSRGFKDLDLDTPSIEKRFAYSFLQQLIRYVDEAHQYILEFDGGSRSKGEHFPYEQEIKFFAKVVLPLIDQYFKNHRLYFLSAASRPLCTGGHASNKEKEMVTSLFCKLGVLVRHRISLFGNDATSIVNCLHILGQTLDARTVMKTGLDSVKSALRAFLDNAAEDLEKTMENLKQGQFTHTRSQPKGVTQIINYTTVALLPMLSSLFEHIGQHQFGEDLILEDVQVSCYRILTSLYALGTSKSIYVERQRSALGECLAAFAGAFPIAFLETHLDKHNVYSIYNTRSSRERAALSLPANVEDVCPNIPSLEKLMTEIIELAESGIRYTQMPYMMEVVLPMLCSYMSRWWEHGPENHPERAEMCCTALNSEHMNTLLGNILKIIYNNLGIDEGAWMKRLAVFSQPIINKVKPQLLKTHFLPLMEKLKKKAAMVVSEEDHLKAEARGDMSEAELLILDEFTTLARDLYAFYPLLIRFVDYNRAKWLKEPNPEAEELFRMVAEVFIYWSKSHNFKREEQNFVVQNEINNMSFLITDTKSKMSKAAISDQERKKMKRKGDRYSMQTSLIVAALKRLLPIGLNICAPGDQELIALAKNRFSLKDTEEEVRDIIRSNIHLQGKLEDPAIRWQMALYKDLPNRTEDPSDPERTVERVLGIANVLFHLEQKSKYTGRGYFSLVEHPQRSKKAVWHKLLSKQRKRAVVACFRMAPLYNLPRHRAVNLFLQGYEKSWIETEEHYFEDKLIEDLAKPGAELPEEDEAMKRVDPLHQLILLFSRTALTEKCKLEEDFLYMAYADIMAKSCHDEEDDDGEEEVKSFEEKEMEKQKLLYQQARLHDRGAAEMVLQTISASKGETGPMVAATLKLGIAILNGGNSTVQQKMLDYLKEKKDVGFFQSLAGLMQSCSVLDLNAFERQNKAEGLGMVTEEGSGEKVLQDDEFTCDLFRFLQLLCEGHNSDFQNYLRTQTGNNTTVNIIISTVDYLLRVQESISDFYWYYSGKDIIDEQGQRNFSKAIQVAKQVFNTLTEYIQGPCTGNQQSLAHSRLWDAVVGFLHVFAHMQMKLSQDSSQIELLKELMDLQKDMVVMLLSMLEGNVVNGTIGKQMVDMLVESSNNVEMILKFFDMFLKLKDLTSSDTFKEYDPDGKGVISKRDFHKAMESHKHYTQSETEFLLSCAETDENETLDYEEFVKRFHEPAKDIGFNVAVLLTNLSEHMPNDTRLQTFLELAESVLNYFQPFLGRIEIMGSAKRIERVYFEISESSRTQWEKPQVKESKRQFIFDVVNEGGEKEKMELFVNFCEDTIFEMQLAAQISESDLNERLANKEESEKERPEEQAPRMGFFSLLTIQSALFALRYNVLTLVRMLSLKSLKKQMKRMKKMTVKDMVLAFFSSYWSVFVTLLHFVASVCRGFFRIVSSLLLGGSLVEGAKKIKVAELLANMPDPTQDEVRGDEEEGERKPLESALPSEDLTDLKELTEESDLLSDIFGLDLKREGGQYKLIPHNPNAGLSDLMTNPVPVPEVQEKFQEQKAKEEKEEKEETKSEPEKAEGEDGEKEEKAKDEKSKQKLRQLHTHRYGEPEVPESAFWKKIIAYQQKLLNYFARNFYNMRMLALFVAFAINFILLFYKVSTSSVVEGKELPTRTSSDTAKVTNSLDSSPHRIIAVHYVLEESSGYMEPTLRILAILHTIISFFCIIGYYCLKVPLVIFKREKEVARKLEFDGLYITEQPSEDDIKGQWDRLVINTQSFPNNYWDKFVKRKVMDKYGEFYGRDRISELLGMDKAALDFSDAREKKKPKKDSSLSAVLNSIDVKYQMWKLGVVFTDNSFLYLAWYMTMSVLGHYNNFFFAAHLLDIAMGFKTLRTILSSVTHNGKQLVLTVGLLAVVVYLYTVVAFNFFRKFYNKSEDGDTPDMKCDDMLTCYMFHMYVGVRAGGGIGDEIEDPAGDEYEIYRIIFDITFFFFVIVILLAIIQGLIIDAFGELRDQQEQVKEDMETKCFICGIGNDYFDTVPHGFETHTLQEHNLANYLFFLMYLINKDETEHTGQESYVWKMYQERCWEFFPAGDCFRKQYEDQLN
Target sequence in this assay (Q9Z2I2 whole entry partner): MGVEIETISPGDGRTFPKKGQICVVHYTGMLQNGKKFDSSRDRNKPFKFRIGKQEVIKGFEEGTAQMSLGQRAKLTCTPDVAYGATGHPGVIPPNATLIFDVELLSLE

Test [6] has as its system amyloid and Tau pathology. As to conditions: Alzheimer's transgenic mice; cited from earlier work.
In another test the test system is healthy individuals. To be noted: sustaining cognitive performance over time; cited from earlier work.
In test [7] the target is T1, RyR2. The test is described as follows: caffeine-induced Ca2+ release in primary hippocampal neurons. The test is classed as cell-based. Further details: representative images of 14-d cultured hippocampal neurons stimulated with 10 mM caffeine; endogenous in cells; host or cells: primary hippocampal neurons, 14 d in culture. To be noted: 10 mM caffeine; neurons treated with isoproterenol plus compound. Here is the method: FIG. 5A presents representative images of 14-d cultured hippocampal neurons stimulated with 10 mM caffeine. For each condition, the Ca^2+ levels are shown at baseline, during stimulation and at recovery. […] Individual values are shown with the mean±s.e.m. […] Scale bar, 10 μm. A reduction in caffeine-induced Ca^2+ release indicates a Ca^2+ depleted ER due to persistent RyR2-mediated Ca^2+ leak. Data are derived from biologically independent samples. All statistical tests were two sided.
To determine whether the activation of the adrenergic pathway indeed causes neuronal RyR2-mediated ER Ca^2+ leak, caffeine (10 mM), a well characterized RyR agonist, was used to assess RyR2 function specifically in hippocampal neurons without interference of other cell types such as glial cells or astrocytes.
Target sequence in this assay (E9Q401 whole entry): as the sequence (E9Q401 whole entry) above

As for `Fc1ccc(Cl)cc1-c1nc(Nc2ccncc2)c2nccnc2n1` [SD-208], the “abnormal behaviors in open field test (time center versus periphery) and EPM test (time open-arm versus closed-arm)” value in test [1] is reported as “prevented”. Further, the discrimination index in test [2] is given as 35%±6%. In addition, the “LTP (hippocampal synaptic plasticity)” value in the test on MI mice was “prevented MI-induced LTP deficits”. Besides, the “motor and cognitive function” value in test [3] (rat model of germinal matrix hemorrhage) is given as “partial recovery”. The germinal matrix hemorrhage entry in test [3] (rat model) is “inhibit germinal matrix hemorrhage”. In addition, the spatial learning entry in test [4] is “improved”. The “ER Ca2+ leak” value on RyR2 [5] is given as “reduced”.

As to `CC(C)NCC(O)COc1cccc2ccccc12` (stereo not drawn) [propranolol], in [1], the “abnormal behaviors in open field test (time center versus periphery) and EPM test (time open-arm versus closed-arm)” value is on record as “prevented”. Also, in the test on MI mice, the “LTP (hippocampal synaptic plasticity)” value is given as “prevented MI-induced LTP deficits”. Moreover, the “amyloid and Tau pathology” value in [6] is reported as “reduced”. For the same molecule, the effects on cognition result in the test on healthy individuals is listed as “beneficial effects”. On RyR2 [7], the “prevention of the small caffeine-induced Ca2+ release of isoproterenol-treated neurons” value is “prevented”.
